Key:
KRAS-WT = KRAS-WT (Homo sapiens, UniProt P01116); experiment: SOS-catalyzed nucleotide exchange assay (Procedure A, TR-FRET), KRAS-WT; assay type: biochemical; settings: nucleotide exchange, read-out: KRAS WT GNE IC50
Procedure, shortened: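 RAS (G12C carries C51S/C80L/C118S) loaded with Bodipy-GDP, complexed with Tb-streptavidin; cpd 60 min RT; + SOS/3 mM GTP. G12C 3/40 nM, WT 1/40, NRAS 1.25/40 nM RAS/SOS, 60 min; G12V 1.25/160 nM, 90 min. Normalized to DMSO and saturating inhibitor; 4PL fit.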

PANC08.13 cells = experiment: Cellular phospho-ERK assay, PANC08.13 cells (homozygous KRAS-G12D); assay type: cell-based; settings: Homo sapiens, PANC-08-13, KRAS-G12D, 2 hours, read-out: PANC-08.13 pERK IC50
Procedure, shortened: (§1)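 Overnight-plated cells on collagen received test compound (up to 30 μM final, threefold steps, ten concentrations) for two hours. After lysis at room temperature, phosphorylated and total ERK were quantified together by Alpha SureFire, and IC50 is based on the phospho-to-total signal ratio.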

AsPC-1 cells = experiment: Cellular phospho-ERK assay, AsPC-1 cells (homozygous KRAS-G12D); assay type: cell-based; settings: Homo sapiens, ASPC1, 2 h, KRAS-G12D, 2 hours, read-out: AsPC1 pERK IC50
Procedure, shortened: as §1

Chain of KRAS-WT (P01116 with tags, fused parts or gaps isoform P01116-2): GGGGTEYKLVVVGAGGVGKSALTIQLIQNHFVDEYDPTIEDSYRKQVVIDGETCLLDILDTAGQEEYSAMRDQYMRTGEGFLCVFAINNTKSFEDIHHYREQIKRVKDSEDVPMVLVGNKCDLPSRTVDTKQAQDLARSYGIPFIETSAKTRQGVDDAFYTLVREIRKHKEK

C#Cc1c(F)ccc2cc(O)cc(-c3nccc4c5c(N6CCOC[C@@](C)(O)C6)nc(OC[C@@]67CCCN6C[C@H](F)C7)nc5n(C)c34)c12 [Ex-18, (S)-4-(8-(8-ethynyl-7-fluoro-3-hydroxynaphthalen-1-yl)-2-(((2R,7aS)-2-fluorotetrahydro-1H-pyrrolizin-7a(5H)-yl)methoxy)-9-methyl-9H-pyrido[4′,3′:4,5]pyrrolo[2,3-d]pyrimidin-4-yl)-6-methyl-1,4-oxazepan-6-ol]
IC50 (KRAS-WT): 1.46 nM | IC50 (PANC08.13 cells): 4.54 nM | IC50 (AsPC-1 cells): 29.8 nM

Reference: US20260176289A1, “SMALL MOLECULE INHIBITORS OF KRAS PROTEINS” (Merck Sharp & Dohme LLC, priority 2022, published 2026)
